Measured values as given in patent US5597835A, “Acyl CoA:cholesterol acyltransferase inhibitors” (Korea Institute of Science and Technology, priority 1993, dated 1997).

Assays:
[1] = target: T1, acyl CoA:cholesterol acyltransferase (ACAT) (Rattus norvegicus, UniProt Q7TQM4); test: ACAT inhibiting activity (modified method of Tabas et al.; [1-14C] oleoyl-CoA, rat liver microsomal enzyme); format: biochemical; conditions: 10 μM [1-14C] oleoyl-CoA, pH 7.4, 37° C., 15 minutes, read-out: IC50 (inhibitor concentration which reduces the activity of ACAT by 50%)
T1 construct: microsomal enzyme (10 mg/ml of protein) derived from rat liver tissue; from tissue; host or cells: rat liver microsomes
T1 sequence (Q7TQM4 1-524): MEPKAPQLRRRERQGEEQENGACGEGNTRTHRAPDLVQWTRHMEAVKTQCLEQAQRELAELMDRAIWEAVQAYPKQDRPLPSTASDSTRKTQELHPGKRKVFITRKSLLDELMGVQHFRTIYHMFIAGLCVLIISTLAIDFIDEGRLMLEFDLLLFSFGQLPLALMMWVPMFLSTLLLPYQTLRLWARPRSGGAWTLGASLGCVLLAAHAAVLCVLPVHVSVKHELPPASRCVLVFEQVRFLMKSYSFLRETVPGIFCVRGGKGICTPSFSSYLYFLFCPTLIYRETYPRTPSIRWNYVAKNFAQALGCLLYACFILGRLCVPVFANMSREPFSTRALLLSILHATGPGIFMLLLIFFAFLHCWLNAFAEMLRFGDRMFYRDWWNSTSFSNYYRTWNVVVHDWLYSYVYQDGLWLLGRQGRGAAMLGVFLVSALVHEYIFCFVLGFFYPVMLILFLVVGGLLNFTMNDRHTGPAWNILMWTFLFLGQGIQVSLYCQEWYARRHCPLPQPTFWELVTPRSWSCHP
Description: ACAT activity was determined as follows in accordance with a modified method of Tabas et al. described in J. Biol. Chem., 261, 3147-3154 (1986).
10 μl of sample, 4.0 μl of microsomal enzyme (10 mg/ml of protein) derived from rat liver tissue, 20 μl of analysis buffer(0.5M KH2 PO4, 10 mM dithiothreitol (DTT), pH 7.4), 15 μl of 40 mg/ml bovine serum albumin(essentially free of fatty acids), 2 μl of 20 mg/ml cholesterol and 41 μl of H2 O were mixed together and the resulting mixture was reacted at 37° C. for 15 minutes. 8 μl of [1-^14 C] oleoyl-CoA(0.05 μCi, final concentration of 10 μM) was added to the mixture and the reaction mixture was reacted at 37° C. for 15 minutes.
1 ml of isopropanol-heptane (4:1(v/v)) was added to the mixture to stop the reaction, 0.6 ml of heptane and 0.4 ml of said analysis buffer(5-fold diluted) were added thereto and the resulting mixture was centrifuged at 2,000 g for 2 minutes to obtain the supernatant.
5 ml of scintillation cocktail lipoluma (Lumac Co., U.S.A.) was added to 100 μl of the supernatant obtained above and enzyme activity was determined by detecting the amount of cholesteryl ester in the mixture based on the unit of count per minute (CPM) by using a liquid scintillation counter.
ACAT inhibiting activity was calculated in accordance with the following equation: [formula] wherein the blank composition had the same composition as the above sample but without enzyme and GERI-BP001 or its derivatives, and was reacted at 37° C.; and the control had the same composition as the above sample without GERI-BP001 or its derivatives and was reacted at 37° C. for 15 min.

female ICR mice = test: Toxicity of GERI-BP001 in mice (subcutaneous injection); format: in vivo, mouse; conditions: 500 mg/kg
Description: 5 female ICR mice weighing 23 g were administered via subcutaneous injection with 500 mg/kg of GERI-BP001.

rats = test: Acute toxic effect in rats; format: in vivo, rat; conditions: dose and route not stated
[2] = Solubility (physicochemical properties)

CCC(=O)O[C@H]1CC[C@]2(C)[C@H]3Cc4c(cc(-c5cccnc5)oc4=O)O[C@]3(C)CC[C@H]2C1(C)C [GERI-BP001-B]
IC50 [1]: 70 to 80 µM

CC(=O)O[C@H]1CC[C@]2(C)[C@H]3Cc4c(cc(-c5cccnc5)oc4=O)O[C@]3(C)CC[C@H]2C1(C)C [GERI-BP001]
IC50 [1]: 70 to 80 µM
acute toxicity (judgement) (female ICR mice; female ICR mice, subcutaneous injection): does not cause acute toxicity
mortality (female ICR mice; female ICR mice, subcutaneous injection, until 4 days after administration): none of the mice was dead
activities of mice (female ICR mice; mouse, in vivo, sc): increased
excited state (female ICR mice; mouse, in vivo, sc): an excited state was induced
time after administration at which excited state was induced (female ICR mice; mouse, in vivo, sc): about 15 minutes
time after administration at which symptoms disappeared (female ICR mice; mouse, in vivo, sc): about 2 hours
acute toxic effect (rats): acute toxic effect was not found
Solubility ([2]; MeOH, CHCl3): soluble
Solubility ([2]; n-hexane, H2O): insoluble

CC(=O)O[C@H]1CC[C@]2(C)[C@H]3C(O)c4c(cc(-c5cccnc5)oc4=O)O[C@]3(C)CC[C@H]2C1(C)C (stereo partly shown) [GERI-BP001-A]
IC50 [1]: 140 to 150 µM

CC(=O)O[C@H]1CC[C@]2(C)[C@H]3Cc4c(cc(-c5ccc[n+]([O-])c5)oc4=O)O[C@]3(C)CC[C@H]2C1(C)C [GERI-BP001-C]
IC50 [1]: 110 to 120 µM
